The target of one assay is human mGluR5a receptor (Homo sapiens, UniProt P41594). Kind of assay: Cell-based functional assay: Ca2+ mobilization (FDSS), potentiation of glutamate EC20 response. Conditions: for pEC50: HEK cells (H10H or H12H) transfected with human mGluR5, in presence of EC20 glutamate, >10 uM estimated where no plateau but >20% increase; for Emax: maximum average response at a single concentration, as percent of maximal glutamate response. As to the method: Table 1 below lists specific compounds as well as experimentally determined mGluR5 activity determined in a cell-based assay. The mGluR5 activity was determined using the metabotropic glutamate receptor activity assays in human embryonic kidney cells as described herein, wherein the human embryonic kidney cells were transfected with human mGluR5. The compounds in Table 1 were synthesized with methods identical or analogous to those shown herein. The column labeled “Rxn” and the data thereunder indicated in Table 1 refers to the Reaction Scheme number described above. The requisite starting materials were commercially available, described in the literature, or readily synthesized by one skilled in the art of organic synthesis.
Chain of human mGluR5a receptor (P41594 21-1180 isoform P41594-2 limits assumed): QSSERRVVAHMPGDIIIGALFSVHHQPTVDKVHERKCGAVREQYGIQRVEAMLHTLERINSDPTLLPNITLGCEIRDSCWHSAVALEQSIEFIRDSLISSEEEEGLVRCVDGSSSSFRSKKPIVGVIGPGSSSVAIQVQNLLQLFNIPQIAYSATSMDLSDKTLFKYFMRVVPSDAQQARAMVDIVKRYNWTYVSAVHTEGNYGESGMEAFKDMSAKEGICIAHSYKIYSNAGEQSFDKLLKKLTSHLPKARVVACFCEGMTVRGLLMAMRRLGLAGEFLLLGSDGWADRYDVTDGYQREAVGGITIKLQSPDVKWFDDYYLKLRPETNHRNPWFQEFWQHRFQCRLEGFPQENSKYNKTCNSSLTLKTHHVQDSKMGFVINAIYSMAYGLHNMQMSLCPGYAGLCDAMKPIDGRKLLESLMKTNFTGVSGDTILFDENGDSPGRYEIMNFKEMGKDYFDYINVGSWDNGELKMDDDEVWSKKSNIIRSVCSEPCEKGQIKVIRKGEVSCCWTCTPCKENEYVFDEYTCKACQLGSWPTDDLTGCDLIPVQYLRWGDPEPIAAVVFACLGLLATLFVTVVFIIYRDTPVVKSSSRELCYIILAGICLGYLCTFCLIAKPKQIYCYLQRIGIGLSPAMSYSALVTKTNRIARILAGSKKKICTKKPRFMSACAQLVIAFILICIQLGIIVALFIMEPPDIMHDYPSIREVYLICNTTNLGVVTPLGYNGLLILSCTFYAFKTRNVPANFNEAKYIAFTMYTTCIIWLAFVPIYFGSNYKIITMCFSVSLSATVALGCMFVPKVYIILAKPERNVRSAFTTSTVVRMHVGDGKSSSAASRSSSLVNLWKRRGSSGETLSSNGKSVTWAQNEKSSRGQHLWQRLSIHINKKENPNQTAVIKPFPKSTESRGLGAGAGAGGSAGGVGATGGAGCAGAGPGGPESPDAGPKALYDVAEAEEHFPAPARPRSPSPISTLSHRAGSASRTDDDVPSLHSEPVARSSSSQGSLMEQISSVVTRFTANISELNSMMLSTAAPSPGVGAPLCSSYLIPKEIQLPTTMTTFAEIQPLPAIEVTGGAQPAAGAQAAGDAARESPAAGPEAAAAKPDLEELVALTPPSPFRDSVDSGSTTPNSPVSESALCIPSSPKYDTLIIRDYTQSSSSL
Human mGluR5a cDNA in pCMV6-XL6 mammalian expression plasmid was purchased from OriGene Technologies, Inc. (catalogue number SC326357) and subcloned into pcDNA3.1(−). Human embryonic kidney (HEK)293A cells were then transfected with human mGluR5a pcDNA3.1(−) using LipofectAmine2000 (Invitrogen) and monoclones were selected and tested for functional response using a Ca^2+ mobilization assay. Monoclones were named for the species (“H” for human) plus the location on the plate (e.g. “10H”).
HEK cells transfected with the human mGluR5a receptor (H10H or H12H cell line) were plated at 15,000 cells/well in clear-bottomed poly-D-lysine-coated assay plates (BD Falcon) in glutamate-glutamine-free growth medium and incubated overnight at 37° C. and 5% CO2. Cell-lines used were either the H10H or H12H cell-lines expressing the human mGluR5 receptor. The following day, the growth medium was removed and the cells were washed with assay buffer containing 1× Hank's balanced salt solution (Invitrogen, Carlsbad, Calif.), 20 mM HEPES, 2.5 mM probenecid, pH 7.4 and left with 20 μL of this reagent. Following this step, the cells were loaded with calcium indicator dye, fluo-4 AM, to a final concentration of 2 μM and incubated for 40-45 min at 37° C. The dye solution was removed and replaced with assay buffer. Cell plates were held for 10-15 min at room temperature and were then loaded into the Functional Drug Screening System 6000 (FDSS 6000, Hamamatsu, Japan).
After establishment of a fluorescence baseline for about 3 seconds, the compounds of the present invention were added to the cells, and the response in cells was measured. 2.3 minutes later an EC20 concentration of the mGluR5 receptor agonist glutamate was added to the cells, and the response of the cells was measured for about 1.7 minutes. All test compounds were dissolved and diluted to a concentration of 10 mM in 100% DMSO and then serially diluted into assay buffer for a 2× stock solution in 0.6% DMSO; stock compounds were then added to the assay for a final DMSO concentration of 0.3% after the first addition to the assay well. Calcium fluorescence measures were recorded as fold over basal fluorescence; raw data was then normalized to the maximal response to glutamate. Potentiation of the agonist response of the mGluR5 receptor in the present invention was observed as an increase in response to submaximal concentrations of glutamate in the presence of compound compared to the response to glutamate in the absence of compound.
The concentration-response curves of compounds of the present invention, obtained in the presence of EC20 of mGluR5 receptor agonist glutamate to determine positive allosteric modulation, were generated using Microsoft Excel with IDBS XLfit add-ins. The raw data file containing all time points was used as the data source in the analysis template. This was saved by the FDSS as a tab-delimited text file. Data were normalized using a static ratio function (F/F0) for each measurement of the total 350 values per well divided by each well's initial value. Data was then reduced as to peak amplitudes (Max—Initial Min) using a time range that starts approximately 1 second after the glutamate EC20 addition and continues for approximately 40 seconds. […]

In assay [1] the test system is amphetamine-induced hyperlocomotion. The assay is described as follows: Reversal of amphetamine-induced hyperlocomotion. Format: in vivo, male Sprague-Dawley rats. Conditions: 10 mg/kg, vehicle 20% HP-beta-CD; amphetamine 1 mg/kg sc; rat. As to the method: Locomotor activity was assessed as mean distance traveled (cm) in standard 16×16 photocell testing chambers measuring 43.2 cm (Length)×43.2 cm (Width)×30.5 cm (Height) (Med Associates, St. Albans, Vt.). Animals were habituated to individual activity chambers for at least 30 min prior to drug administration. Following administration of drug or vehicle, activity was recorded for a […] time period. Data was expressed as the mean (±SEM) distance traveled recorded in 5 min intervals over the test period. The data were analyzed using repeated measures analysis of variance (ANOVA) followed by post-hoc testing using Dunnett's test, when appropriate. A difference was considered significant when p≦0.05. Amphetamine sulfate was obtained from Sigma (Cat#A5880-1G; St. Louis, Mo.) and 10 mg was dissolved in 10 ml of water. Test compound, 2-((3-fluorobenzyl)oxy)-7,8-dihydro-1,6-naphthyridin-5(6H)-one, was formulated in a volume of 10 ml with an amount of drug appropriate to the dosage indicated. […] At 60 min, all rats were injected subcutaneously with 1 mg/kg amphetamine or vehicle and then monitored for an additional 60 min. Animals are monitored for a total of 120 minutes. Data are expressed as changes in ambulation defined as total number of beam breaks per 5 min periods. The data for the dose-response studies were analyzed by a between-group analysis of variance. […]

pEC50: −log10 of the molar value.

In general, pEC50 refers to the EC50 on a negative log10 scale, so that one unit is a factor of ten. The Emax is the size of the effect at its maximum, as opposed to the concentration needed.

For `COc1ccc(CN2CCc3ncc(OCc4ccccc4)cc3C2=O)cc1` [compound 14], at human mGluR5a receptor, the pEC50 is below 5.00 and the maximal response (Emax) is 46%.

`O=C1c2cc(OCc3ccccc3)cnc2CCN1c1ccc(F)cc1F` [compound 18]: on human mGluR5a receptor, the pEC50 was below 5.00 and the Emax was found to be 67%.

Regarding `COc1ccc(CN2CCc3ncc(COc4cccc(F)c4)cc3C2=O)cc1` [compound 12], on human mGluR5a receptor, the negative logarithm of the EC50 (pEC50) is 5.80 and the Emax worked out at 64%.

Turning to `O=C1c2ccc(OCc3cccc(F)c3)nc2CCN1CC1CCC1` [compound 11], on human mGluR5a receptor, the pEC50 was 6.20 and the Emax stood at 39%.

`O=C1c2cc(OCc3ccccc3)cnc2CCN1c1ccc(F)cc1` [compound 21]: at human mGluR5a receptor, the pEC50 was below 5.00 and the Emax came to 34%.

In the case of `O=C1c2ccc(OCc3cccc(F)c3)nc2CCN1c1cccc(F)c1` [compound 4], at human mGluR5a receptor, the pEC50 was 6.01 and the Emax stood at 41%.

For the compound `O=C1c2cc(OCc3ccccc3)cnc2CCN1c1cccnc1` [compound 19], at human mGluR5a receptor, the pEC50 is below 4.52.

As for `Cc1cccc(N2CCc3ncc(OCc4ccccc4)cc3C2=O)n1` [compound 20], the pEC50 on human mGluR5a receptor is below 4.52.

Consider `O=C1c2ncc(COc3ccccc3)cc2CCN1c1ccc(F)cc1` [compound 8], for which, at human mGluR5a receptor, the pEC50 is 6.14 and the Emax amounted to 76%.

Turning to `O=C1NCCc2ncc(OCc3ccccc3)cc21` [compound 15], at human mGluR5a receptor, the pEC50 is below 5.00 and the Emax worked out at 43%.

For the compound `O=C1NCCc2nc(OCc3cccc(Cl)c3)ccc21` [compound 9], at human mGluR5a receptor, the pEC50 is 6.72 and the Emax came to 55%.

As to `O=C1NCCc2nc(OCc3cccc(F)c3)ccc21` [compound 1], at human mGluR5a receptor, the pEC50 is 6.43 and the Emax was 71%.

As to `CN1CCc2cc(COc3ccccc3)cnc2C1=O` [compound 26], at human mGluR5a receptor, the pEC50 is below 4.52 and the Emax was determined as 21%.

For `COc1ccc(CN2CCc3nc(OCc4cccc(F)c4)ccc3C2=O)cc1C(F)(F)F` [compound 3], on human mGluR5a receptor, the pEC50 is below 5.00 and the Emax turned out to be 40%.

For `C[C@H](N1CCc2cc(COc3ccccc3)cnc2C1=O)C(C)(C)C` [compound 27], at human mGluR5a receptor, the pEC50 is below 4.52 and the Emax was found to be 15%.

Consider `O=C1c2ccc(OCc3cccc(F)c3)nc2CCN1Cc1cccc(Cl)c1F` [compound 2], for which, at human mGluR5a receptor, the pEC50 was 5.38 and the Emax was 39%.

As for `O=C1c2ccc(OCc3cccc(F)c3)nc2CCN1c1ccc(F)cn1` [compound 5], on human mGluR5a receptor, the pEC50 was below 5.00 and the maximal effect (Emax) worked out at 40%.

`O=C1c2ccc(COc3cccc(F)c3)nc2CCN1c1ccc(F)cc1` [compound 6]: on human mGluR5a receptor, the pEC50 was 6.70 and the Emax was found to be 72%.

As to `O=C1c2ccc(OCc3ccccc3)nc2CCN1c1ccc(F)cc1` [2-(benzyloxy)-6-(4-fluorophenyl)-7,8-dihydro-1,6-naphthyridin-5(6H)-one], the “apparent reversal of amphetamine-induced hyperlocomotion” value in assay [1] turned out to be 35%.

Consider `O=C1NCCc2nc(OCc3ccccc3F)ccc21` [compound 10], for which, on human mGluR5a receptor, the pEC50 is 6.15 and the Emax is 79%.

Take `CN1CCc2ncc(COc3cccc(F)c3)cc2C1=O` [compound 13]: on human mGluR5a receptor, the pEC50 was below 5.00 and the Emax amounted to 44%.

`O=C1NCCc2cc(COc3ccccc3)cnc21` [compound 25]: at human mGluR5a receptor, the pEC50 was below 4.52 and the Emax is 43%.

With `O=C1c2cc(OCc3ccccc3)cnc2CCN1c1ccccn1` [compound 17], the pEC50 at human mGluR5a receptor was below 4.52.

Consider `O=C1c2ccc(OCc3ccccc3)nc2CCN1CC1CCC1` [compound 24], for which, on human mGluR5a receptor, the pEC50 was 6.36 and the maximal effect (Emax) is 49%.

Take `O=C1c2cc(OCc3ccccc3)cnc2CCN1CC1CCC1` [compound 22]: on human mGluR5a receptor, the pEC50 was 5.56 and the Emax was 52%.

On to `O=C1c2ccc(OCc3ccccc3)nc2CCN1c1ccc(F)cc1` [compound 23], for which, at human mGluR5a receptor, the pEC50 was 6.90 and the Emax turned out to be 66%.

As to `O=C1c2ccc(COc3cccc(F)c3)nc2CCN1c1ccc(F)cn1` [compound 7], on human mGluR5a receptor, the negative-log EC50 (pEC50) was 6.44 and the Emax came out at 66%.

The values are drawn from patent US8853237B2, “Naphthyridinone analogs as mGluR5 positive allosteric modulators” (Vanderbilt University, priority 2010, dated 2014).
